± gives the standard deviation of the averaged measurements.
What was measured:
CANERTINIB [1] = compound: T1, C=CC(=O)Nc1cc2c(Nc3ccc(F)c(Cl)c3)ncnc2cc1OCCCN1CCOCC1 [CANERTINIB]; assay: area under dose-response curve of surviving fraction (unscaled, Aref=0) (surviving fraction x log10(nM)); higher = more resistant; conditions: exposure time: 5 days; dose range 0.5-1000 nM
Method in brief: (§1)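 Three screens per tumour cell line were run in 384-well plates at eight inhibitor concentrations from 0.5 to 1000 nM over five days. Surviving fractions, from CellTiter-Glo luminescence normalised to DMSO-only wells, were fitted with 3-parameter logistic curves in the drc R package. The reported area under the curve is the unscaled activity area. It spans log10 dose, and Aref is 0.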

[2] = compound: Cn1cc(C2=Nc3cc(NC(=O)C(N)C4CCCCC4)cc4c3C2=CNNC4=O)cn1; assay: as above; conditions: exposure time: 5 days; dose range 0.5-1000 nM
Method in brief: as §1

BI-2536 [3] = compound: T2, CC[C@@H]1C(=O)N(C)c2cnc(Nc3ccc(C(=O)NC4CCN(C)CC4)cc3OC)nc2N1C1CCCC1 [BI-2536]; assay: as above; conditions: exposure time: 5 days; dose range 0.5-1000 nM
Method in brief: as §1

SNX-5422 [4] = compound: T3, CC1(C)CC(=O)c2c(C(F)(F)F)nn(-c3ccc(C(N)=O)c(N[C@H]4CC[C@H](OC(=O)CN)CC4)c3)c2C1 [SNX-5422]; assay: as above; conditions: exposure time: 5 days; dose range 0.5-1000 nM
Method in brief: as §1

AFATINIB [5] = compound: T4, CN(C)C/C=C/C(=O)Nc1cc2c(Nc3ccc(F)c(Cl)c3)ncnc2cc1O[C@H]1CCOC1 [AFATINIB]; assay: as above; conditions: exposure time: 5 days; dose range 0.5-1000 nM
Method in brief: as §1

SAPACITABINE [6] = compound: T5, CCCCCCCCCCCCCCCC(=O)Nc1ccn([C@@H]2O[C@H](CO)[C@@H](O)[C@@H]2C#N)c(=O)n1 [SAPACITABINE]; assay: as above; conditions: exposure time: 5 days; dose range 0.5-1000 nM
Method in brief: as §1

MDV3100 [7] = compound: T6, CNC(=O)c1ccc(N2C(=S)N(c3ccc(C#N)c(C(F)(F)F)c3)C(=O)C2(C)C)cc1F [MDV3100]; assay: as above; conditions: exposure time: 5 days; dose range 0.5-1000 nM
Method in brief: as §1

TIOGUANINE [8] = compound: T7, Nc1nc2[nH]cnc2c(=S)[nH]1 [TIOGUANINE]; assay: as above; conditions: exposure time: 5 days; dose range 0.5-1000 nM
Method in brief: as §1

CANERTINIB [9] = compound: T1, CANERTINIB; assay: surviving fraction relative to DMSO-only wells; higher = less growth inhibition; conditions: exposure time: 5 days
Method in brief: (§2)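 A line counted only if its three screens reached replicate Pearson r >0.7 and median Z' >0.3. Tumour cells in log phase were seeded at 250–500 per well in 384-well plates and, after 24 hours, kept in continuous contact with inhibitors at 0.5, 1, 5, 10, 50, 100, 500 and 1000 nM for five days. Surviving fraction was taken from CellTiter-Glo luminescence relative to the median of DMSO-only wells.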

[10] = compound: Cn1cc(C2=Nc3cc(NC(=O)C(N)C4CCCCC4)cc4c3C2=CNNC4=O)cn1; assay: as above; conditions: exposure time: 5 days
Method in brief: as §2

BI-2536 [11] = compound: T2, BI-2536; assay: as above; conditions: exposure time: 5 days
Method in brief: as §2

SNX-5422 [12] = compound: T3, SNX-5422; assay: as above; conditions: exposure time: 5 days
Method in brief: as §2

AFATINIB [13] = compound: T4, AFATINIB; assay: as above; conditions: exposure time: 5 days
Method in brief: as §2

SAPACITABINE [14] = compound: T5, SAPACITABINE; assay: as above; conditions: exposure time: 5 days
Method in brief: as §2

MDV3100 [15] = compound: T6, MDV3100; assay: as above; conditions: exposure time: 5 days
Method in brief: as §2

TIOGUANINE [16] = compound: T7, TIOGUANINE; assay: as above; conditions: exposure time: 5 days
Method in brief: as §2

Test System: MFM223 BREAST
- area under dose-response curve (CANERTINIB [1]): 2.88
- area under dose-response curve [2]: 2.38
- area under dose-response curve (BI-2536 [3]): 0.566
- area under dose-response curve (SNX-5422 [4]): 2.02
- area under dose-response curve (AFATINIB [5]): 3.2
- area under dose-response curve (SAPACITABINE [6]): 2.85
- area under dose-response curve (MDV3100 [7]): 3.56
- area under dose-response curve (TIOGUANINE [8]): 3.53
- surviving fraction (CANERTINIB [9]; 0.5 nM): 0.817 ± 0.075
- surviving fraction (CANERTINIB [9]; 1 nM): 0.898 ± 0.12
- surviving fraction (CANERTINIB [9]; 5 nM): 0.84 ± 0.14
- surviving fraction (CANERTINIB [9]; 10 nM): 0.808 ± 0.01
- surviving fraction (CANERTINIB [9]; 50 nM): 0.958 ± 0.077
- surviving fraction (CANERTINIB [9]; 100 nM): 1 ± 0.034
- surviving fraction (CANERTINIB [9]; 500 nM): 0.874 ± 0.013
- surviving fraction (CANERTINIB [9]; 1000 nM): 0.794 ± 0.029
- surviving fraction ([10]; 0.5 nM): 1.15 ± 0.029
- surviving fraction ([10]; 1 nM): 1.1 ± 0.012
- surviving fraction ([10]; 5 nM): 1.09 ± 0.11
- surviving fraction ([10]; 10 nM): 1.05 ± 0.069
- surviving fraction ([10]; 50 nM): 0.748 ± 0.047
- surviving fraction ([10]; 100 nM): 0.408 ± 0.036
- surviving fraction ([10]; 500 nM): 0.226 ± 0.018
- surviving fraction ([10]; 1000 nM): 0.193 ± 0.025
- surviving fraction (BI-2536 [11]; 0.5 nM): 0.818 ± 0.041
- surviving fraction (BI-2536 [11]; 1 nM): 0.338 ± 0.017
- surviving fraction (BI-2536 [11]; 5 nM): 0.0768 ± 0.0068
- surviving fraction (BI-2536 [11]; 10 nM): 0.0932 ± 0.0063
- surviving fraction (BI-2536 [11]; 50 nM): 0.137 ± 0.012
- surviving fraction (BI-2536 [11]; 100 nM): 0.148 ± 0.012
- surviving fraction (BI-2536 [11]; 500 nM): 0.141 ± 0.011
- surviving fraction (BI-2536 [11]; 1000 nM): 0.106 ± 0.016
- surviving fraction (SNX-5422 [12]; 0.5 nM): 1.16 ± 0.032
- surviving fraction (SNX-5422 [12]; 1 nM): 1.1 ± 0.029
- surviving fraction (SNX-5422 [12]; 5 nM): 1.06 ± 0.025
- surviving fraction (SNX-5422 [12]; 10 nM): 1.08 ± 0.074
- surviving fraction (SNX-5422 [12]; 50 nM): 0.254 ± 0.014
- surviving fraction (SNX-5422 [12]; 100 nM): 0.152 ± 0.016
- surviving fraction (SNX-5422 [12]; 500 nM): 0.111 ± 0.0051
- surviving fraction (SNX-5422 [12]; 1000 nM): 0.116 ± 0.0013
- surviving fraction (AFATINIB [13]; 0.5 nM): 1.13 ± 0.076
- surviving fraction (AFATINIB [13]; 1 nM): 1.16 ± 0.11
- surviving fraction (AFATINIB [13]; 5 nM): 1.13 ± 0.097
- surviving fraction (AFATINIB [13]; 10 nM): 1.13 ± 0.031
- surviving fraction (AFATINIB [13]; 50 nM): 1.11 ± 0.086
- surviving fraction (AFATINIB [13]; 100 nM): 1.04 ± 0.1
- surviving fraction (AFATINIB [13]; 500 nM): 0.803 ± 0.059
- surviving fraction (AFATINIB [13]; 1000 nM): 0.365 ± 0.021
- surviving fraction (SAPACITABINE [14]; 0.5 nM): 0.839 ± 0.092
- surviving fraction (SAPACITABINE [14]; 1 nM): 0.82 ± 0.11
- surviving fraction (SAPACITABINE [14]; 5 nM): 0.83 ± 0.089
- surviving fraction (SAPACITABINE [14]; 10 nM): 0.8 ± 0.045
- surviving fraction (SAPACITABINE [14]; 50 nM): 0.933 ± 0.12
- surviving fraction (SAPACITABINE [14]; 100 nM): 0.939 ± 0.026
- surviving fraction (SAPACITABINE [14]; 500 nM): 0.903 ± 0.074
- surviving fraction (SAPACITABINE [14]; 1000 nM): 0.77 ± 0.1
- surviving fraction (MDV3100 [15]; 0.5 nM): 1.1 ± 0.12
- surviving fraction (MDV3100 [15]; 1 nM): 1.14 ± 0.17
- surviving fraction (MDV3100 [15]; 5 nM): 1.19 ± 0.17
- surviving fraction (MDV3100 [15]; 10 nM): 1.12 ± 0.17
- surviving fraction (MDV3100 [15]; 50 nM): 1.06 ± 0.074
- surviving fraction (MDV3100 [15]; 100 nM): 1.08 ± 0.041
- surviving fraction (MDV3100 [15]; 500 nM): 1.09 ± 0.036
- surviving fraction (MDV3100 [15]; 1000 nM): 1.02 ± 0.095
- surviving fraction (TIOGUANINE [16]; 0.5 nM): 1.01 ± 0.13
- surviving fraction (TIOGUANINE [16]; 1 nM): 0.997 ± 0.062
- surviving fraction (TIOGUANINE [16]; 5 nM): 1.09 ± 0.037
- surviving fraction (TIOGUANINE [16]; 10 nM): 1.041 ± 0.009
- surviving fraction (TIOGUANINE [16]; 50 nM): 1.13 ± 0.031
- surviving fraction (TIOGUANINE [16]; 100 nM): 1.13 ± 0.045
- surviving fraction (TIOGUANINE [16]; 500 nM): 1.05 ± 0.074
- surviving fraction (TIOGUANINE [16]; 1000 nM): 1 ± 0.068

Reference: the supplement of paper PMC6045584
